Assay results reported in patent US9365549B2, “Hepatitis C virus inhibitors” (THERAVANCE BIOPHARMA R&D IP, LLC, priority 2012, dated 2016).

How the values were obtained:
[1] = system: HCV genotype 1a replicon cell line; assay: HCV Genotype 1a Replicon Assay; format: cell-based; details: Hepatitis C virus, Huh7.5 cell background, NS3-specific protease activity in lysates, 48 or 72 hours, read-out: pEC50 Genotype 1a (converted)
Experimental: Assay 2: HCV Genotype 1a Replicon Assay
The HCV genotype 1a replicon cell line was obtained from Apath LLC (APC89; Huh7.5 cell background). This subgenomic replicon contains the N-terminus of the HCV core protein fused to the neomycin-resistance selectable marker. The EMCV IRES lies downstream and drives expression of the non-structural proteins NS3-NS5B. Compound potencies were determined using the NS3-specific protease activity in lysates as a measurement of compound inhibition of replicon levels.
(§1) Cells were grown at 37° C. in a 5% CO2 humidified incubator in DMEM (Invitrogen) with 10% FBS (HyClone), 1×NEAA (Invitrogen), 1× Pen-Strep (Invitrogen), and 850 μg/mL G418 (Invitrogen). On day 1 of the assay, cells were plated at 15,000 cells/well in black 96-well tissue culture plates (Costar) in 200 μL media lacking G418. […] Compounds were initially diluted in DMSO and then diluted another 200× in media to bring the final DMSO concentration down to 0.5%. The cells were incubated with test compounds for 48 or 72 hours. At the end of the incubation period, media and compound were removed from the plates.
To determine the NS3-specific protease activity in lysates, the cells were lysed at room temperature in 50 μL/well of 50 mM Hepes pH 7.5, 150 mM NaCl, 15% Glycerol, 0.15% Triton X-100, 10 mM DTT for 20 minutes with shaking. 50 μL of an NS3/4a protease-specific FRET substrate (Anaspec RET S1 Cat#22991) was then added to the wells at a final concentration of 15 μM. The plates were incubated at 37° C. for 20 minutes, which corresponds to a timepoint at which the protease activity is still in the linear phase. Protease activity was determined by measuring fluorescence (Excitation: 340 nm; Emission: 509 nm).
To analyze the data, the fluorescence was plotted vs. the compound concentration, and EC50 values were determined from a 4-parameter robust fit model using GraphPad Prism software.

[2] = system: HCV genotype 1b replicon cell line; assay: HCV Genotype 1b Replicon Assay; format: cell-based; details: Hepatitis C virus, Huh-7, Huh7 cell background, luciferase activity readout, 48 hours
From the text: Assay 1: HCV Genotype 1b Replicon Assay
The HCV genotype 1b replicon cell line was obtained from Apath LLC (Brooklyn, N.Y.) (APC144; Huh7 cell background). This subgenomic replicon contains the N-terminus of the HCV core protein fused to the neomycin-resistance selectable marker. The EMCV IRES lies downstream and drives expression of humanized Renilla luciferase fused to the non-structural proteins NS3-NS5B. This cell line was used to determine compound potency using the luciferase activity readout as a measurement of compound inhibition of replicon levels.
as §1, with “500” for “850”, “10,000” for “15,000”, “white” for “black”, “48” for “48 or 72”, “plates and the luciferase activity was determined using Promega Renilla-Glo reagents.” for “plates.”
To analyze the data, the luciferase activity was plotted vs. the compound concentration, and EC50 values were determined from a 4-parameter robust fit model with the GraphPad Prism software package (GraphPad Software, Inc., San Diego, Calif.). Results are expressed as the negative decadic logarithm of the EC50 value, pEC50.

Row | Compound | EC50 [1] | EC50 [2]
1 | COC(=O)N[C@H](C(=O)N1CC(C2CC2)=C[C@H]1c1nc(-c2ccc(-c3cc(Cl)c(NC(=O)c4ccc(N5CCN(C(=O)[C@H]6CC6(C)C)C[C@H]5C)nc4)cc3OC(F)(F)F)cc2)c[nH]1)C(C)C [Example 4, ((S)-1-{(S)-2-[4-(5′-Chloro-4′-{[6-((R)-4-(S)-2,2-dimethylcyclopropanecarbonyl-2-methyl-piperazin-1-yl)-pyridine-3-carbonyl]-amino}-2′-trifluoromethoxy-biphenyl-4-yl)-1H-imidazol-2-yl]-4-cyclopropyl-2,5-dihydro-pyrrole-1-carbonyl}-2-methyl-propyl)-carbamic acid methyl ester] | < 0.1 nM | < 0.1 nM
2 | COC(=O)N[C@H](C(=O)N1C[Si](C)(C)C[C@H]1c1nc(-c2ccc(-c3cc(Cl)c(NC(=O)c4ccc(N5CCN(C(=O)[C@H]6CC6(C)C)C[C@H]5C)nc4)cc3OC(F)(F)F)cc2)c[nH]1)C(C)C [Example 5, ((S)-1-{(R)-5-[4-(5′-Chloro-4′-{[6-((R)-4-(S)-2,2-dimethylcyclopropanecarbonyl-2-methyl-piperazin-1-yl)-pyridine-3-carbonyl]-amino}-2′-trifluoromethoxy-biphenyl-4-yl)-1H-imidazol-2-yl]-3,3-dimethyl-[1,3]azasilolidine-1-carbonyl}-2-methyl-propyl)-carbamic acid methyl ester] | < 0.1 nM | < 0.1 nM
3 | COC(=O)N[C@H](C(=O)N1C[C@@H](C)C[C@H]1c1nc2c(ccc3cc(-c4cc(F)c(NC(=O)c5ccc(N6CCN(C(=O)C(C)(C)C)C[C@H]6C)nc5)cc4OC(F)(F)F)ccc32)[nH]1)C1CCOCC1 [Example 5-2] | < 0.1 nM | < 0.1 nM
4 | COC(=O)N[C@H](C(=O)N1C[C@@H](C)C[C@H]1c1nc2c(ccc3cc(-c4cc(F)c(NC(=O)c5ccc(N6CCN(C(=O)C(C)(C)CO)C[C@H]6C)nc5)cc4OC(F)(F)F)ccc32)[nH]1)C1CCOCC1 [Example 5-3] | < 0.1 nM | < 0.1 nM
5 | COC(=O)N[C@H](C(=O)N1C[C@@H](C)C[C@H]1c1nc2c(ccc3cc(-c4cc(Cl)c(C(=O)Nc5ccc(N6CCN(C(=O)C(C)(C)C)C[C@H]6C)nc5)cc4OC(F)(F)F)ccc32)[nH]1)C1CCOCC1 [Example 5-6] | < 0.1 nM | < 0.1 nM
6 | COC(=O)N[C@H](C(=O)N1C[C@@H](C)C[C@H]1c1nc2c(ccc3cc(-c4cc(Cl)c(C(=O)Nc5ccc(N6CCN(C(=O)C(C)(C)CO)C[C@H]6C)nc5)cc4OC(F)(F)F)ccc32)[nH]1)C1CCOCC1 [Example 5-7] | < 0.1 nM | < 0.1 nM
7 | COC(=O)N[C@H](C(=O)N1[C@@H]2C[C@@H]2CC[C@H]1c1nc(-c2ccc(-c3cc(Cl)c(NC(=O)c4ccc(N5CCN(C(=O)C(C)(C)C)C[C@H]5C)nc4)cc3OC(F)(F)F)cc2)c[nH]1)C(C)C [Example 5-10] | < 0.1 nM | < 0.1 nM
8 | COC(=O)N[C@H](C(=O)N1C[Si](C)(C)C[C@H]1c1nc(-c2ccc(-c3ccc(NC(=O)c4ccc(N5CCN(C(=O)C(C)(C)C)C[C@H]5C)nc4)cc3OC(F)(F)F)cc2)c[nH]1)C(C)C [Example 7, [(S)-1-((R)-5-{4-[4′-({6-[(R)-4-(2,2-dimethyl-propionyl)-2-methyl-piperazin-1-yl]-pyridine-3-carbonyl}-amino)-2′-trifluoromethoxy-biphenyl-4-yl]-1H-imidazol-2-yl}-3,3-dimethyl-[1,3]azasilolidine-1-carbonyl)-2-methyl-propyl]-carbamic acid methyl ester] | 0.1 to 1 nM | < 0.1 nM
9 | COC(=O)N[C@H](C(=O)N1C[C@@H](C)C[C@H]1c1nc2c(ccc3cc(-c4cc(Cl)c(NC(=O)c5ccc(N6CCN(C(=O)C(C)(C)C)C[C@H]6C)nc5)cc4OC(F)(F)F)ccc32)[nH]1)C(C)C [Example 8, [(S)-1-((2S,4S)-2-{7-[5-Chloro-4-({6-[(R)-4-(2,2-dimethyl-propionyl)-2-methyl-piperazin-1-yl]-pyridine-3-carbonyl}-amino)-2-trifluoromethoxy-phenyl]-3H-naphtho[1,2-d]imidazol-2-yl}-4-methyl-pyrrolidine-1-carbonyl)-2-methyl-propyl]-carbamic acid methyl ester] | < 0.1 nM | < 0.1 nM
10 | COC(=O)N[C@H](C(=O)N1C[C@@H](C)C[C@H]1c1nc2c(ccc3cc(-c4cc(Cl)c(NC(=O)c5ccc(N6CCN(C(=O)C7CC7)C[C@H]6C)nc5)cc4OC(F)(F)F)ccc32)[nH]1)C(C)C [Example 9, ((S)-1-{(2S,4S)-2-[7-(5-Chloro-4-{[6-((R)-4-cyclopropanecarbonyl-2-methyl-piperazin-1-yl)-pyridine-3-carbonyl]-amino}-2-trifluoromethoxy-phenyl)-3H-naphtho[1,2-d]imidazol-2-yl]-4-methyl-pyrrolidine-1-carbonyl}-2-methyl-propyl)-carbamic acid methyl ester] | < 0.1 nM | < 0.1 nM
11 | COC(=O)N[C@H](C(=O)N1C[C@@H](C)C[C@H]1c1nc2c(ccc3cc(-c4cc(Cl)c(NC(=O)c5ccc(N6CCN(C(=O)[C@H]7CC7(C)C)C[C@H]6C)nc5)cc4OC(F)(F)F)ccc32)[nH]1)C(C)C [Example 10, [(S)-1-((2S,4S)-2-{7-[5-Chloro-4-({6-[(R)-4-((S)-2,2-dimethylcyclopropanecarbonyl)-2-methyl-piperazin-1-yl]-pyridine-3-carbonyl}-amino)-2-trifluoromethoxy-phenyl]-3H-naphtho[1,2-d]imidazol-2-yl}-4-methyl-pyrrolidine-1-carbonyl)-2-methyl-propyl]-carbamic acid methyl ester] | < 0.1 nM | < 0.1 nM
12 | COC(=O)N[C@H](C(=O)N1C[C@@H](C)C[C@H]1c1nc2c(ccc3cc(-c4ccc(C(=O)Nc5ccc(N6CCN(C(=O)C(C)(C)C)C[C@H]6C)nc5)cc4OC(F)(F)F)ccc32)[nH]1)C(C)C [Example 13, ((S)-1-{(2S,4S)-2-[7-(4-{6-[(R)-4-(2,2-Dimethyl-propionyl)-2-methyl-piperazin-1-yl]-pyridin-3-ylcarbamoyl}-2-trifluoromethoxy-phenyl)-3H-naphth[1,2-d]imidazol-2-yl]-4-methyl-pyrrolidine-1-carbonyl}-2-methyl-propyl)-carbamic acid methyl ester] | < 0.1 nM | < 0.1 nM
13 | COC(=O)N[C@H](C(=O)N1C[C@@H](C)C[C@H]1c1nc2c(ccc3cc(-c4cc(Cl)c(NC(=O)c5ccc(N6CCN(C(=O)C(C)(C)C)C[C@H]6C)nc5)cc4OC(F)(F)F)ccc32)[nH]1)C1CCOCC1 [Example 14, [(S)-2-((2S,4S)-2-{7-[4-({6-[(R)-4-(2,2-Dimethyl-propionyl)-2-methyl-piperazin-1-yl]-pyridine-3-carbonyl}-amino)-5-chloro-2-trifluoromethoxy-phenyl]-3H-naphtho[1,2-d]imidazol-2-yl}-4-methyl-pyrrolidin-1-yl)-2-oxo-1-(tetrahydropyran-4-yl)-ethyl]-carbamic acid methyl ester] | < 0.1 nM | < 0.1 nM
14 | COC(=O)N[C@H](C(=O)N1C[C@@H](C)C[C@H]1c1nc2c(ccc3cc(-c4cc(Cl)c(NC(=O)c5ccc(N6CCN(C(=O)C(C)(C)CO)C[C@H]6C)nc5)cc4OC(F)(F)F)ccc32)[nH]1)C1CCOCC1 [Example 15, [(S)-2-((2S,4S)-2-{7-[4-({6-[(R)-4-(3-Hydroxy-2,2-dimethyl-propionyl)-2-methyl-piperazin-1-yl]-pyridine-3-carbonyl}-amino)-5-chloro-2-trifluoromethoxy-phenyl]-3H-naphtho[1,2-d]imidazol-2-yl}-4-methyl-pyrrolidin-1-yl)-2-oxo-1-(tetrahydropyran-4-yl)-ethyl]-carbamic acid methyl ester] | < 0.1 nM | < 0.1 nM
